The values below come from ChEMBL document CHEMBL5620374, “Synthesis and bioevaluation of novel stilbene-based derivatives as tubulin/HDAC dual-target inhibitors with potent antitumor activities in vitro and in vivo” (Eur J Med Chem, 2023).

The test system of series [1] is K562. As to the kind of experiment: Induction of apoptosis in human K562 cells assessed as viable cells at 4 nM incubated for 48 hrs by Annexin V/PI staining based flow cytometry (reference value: 92.52 +/- 0.34 %). The class given is functional. Conditions: read-out: Activity.
Another series has as its system MDA-MB-231. As to the kind of experiment: Inhibition of cell migration in human MDA-MB-231 cells incubated for 48 hrs by crystal violet staining based transwell assay. It is filed as functional. The conditions noted are these: dose 2-8 nM.
The subject of the next series is H22. In words: Antitumor activity against mouse H22 cells allografted in ICR mouse assessed as decrease in tumor weight at 10 to 20 mg/kg, iv qd for 17 days consecutively. The class given is functional, organism-based. Conditions: dose 10-20 mg/kg, time 17.0 day.
Series [2] has as its target T1, Protein deacetylase HDAC6 (Homo sapiens) (UniProt Q9UBN7).
T1 sequence (whole entry): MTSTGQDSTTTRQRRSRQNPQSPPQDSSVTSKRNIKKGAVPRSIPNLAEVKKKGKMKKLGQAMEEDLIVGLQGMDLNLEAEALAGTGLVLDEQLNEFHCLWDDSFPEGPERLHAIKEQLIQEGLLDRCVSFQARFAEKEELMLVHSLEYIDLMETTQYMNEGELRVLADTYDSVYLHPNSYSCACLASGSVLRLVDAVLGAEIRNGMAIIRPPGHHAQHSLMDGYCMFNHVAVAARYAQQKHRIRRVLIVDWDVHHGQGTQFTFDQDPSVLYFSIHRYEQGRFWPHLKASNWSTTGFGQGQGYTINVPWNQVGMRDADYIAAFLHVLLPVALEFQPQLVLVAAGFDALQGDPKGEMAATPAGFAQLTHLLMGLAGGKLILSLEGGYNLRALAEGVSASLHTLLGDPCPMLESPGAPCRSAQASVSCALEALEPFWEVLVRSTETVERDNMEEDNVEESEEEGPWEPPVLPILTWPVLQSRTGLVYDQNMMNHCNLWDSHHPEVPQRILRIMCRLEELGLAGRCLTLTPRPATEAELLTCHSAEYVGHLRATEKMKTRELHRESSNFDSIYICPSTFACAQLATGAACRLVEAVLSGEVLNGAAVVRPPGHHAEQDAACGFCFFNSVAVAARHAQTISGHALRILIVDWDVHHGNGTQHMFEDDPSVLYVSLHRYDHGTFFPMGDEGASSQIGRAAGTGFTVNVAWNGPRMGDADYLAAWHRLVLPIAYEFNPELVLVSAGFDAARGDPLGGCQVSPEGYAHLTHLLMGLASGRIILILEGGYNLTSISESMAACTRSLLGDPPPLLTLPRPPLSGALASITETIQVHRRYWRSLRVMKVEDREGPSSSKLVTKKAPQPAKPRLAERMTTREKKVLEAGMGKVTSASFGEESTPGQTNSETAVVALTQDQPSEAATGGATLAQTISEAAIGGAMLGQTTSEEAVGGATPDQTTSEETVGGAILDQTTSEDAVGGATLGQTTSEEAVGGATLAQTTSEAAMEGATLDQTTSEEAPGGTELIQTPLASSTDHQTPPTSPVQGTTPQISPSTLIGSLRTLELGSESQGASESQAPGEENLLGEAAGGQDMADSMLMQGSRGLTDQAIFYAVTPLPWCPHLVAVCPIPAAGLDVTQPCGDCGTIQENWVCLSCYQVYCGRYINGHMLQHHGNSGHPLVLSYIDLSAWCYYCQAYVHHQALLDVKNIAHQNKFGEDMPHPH
In words: Inhibition of HDAC6 in human K562 cells assessed as increase in Acetyl-alpha-tubulin level at 0.01 to 1 uM incubated for 24 hrs by Western blot analysis. The class given is cell-based. The conditions noted are these: dose 0.01-1 µM. On the technique in general: A western blot detects proteins with antibodies after separation by electrophoresis.

The subject of series [3] is K562. As to the kind of experiment: Induction of apoptosis in human K562 cells assessed as nuclear fragmentation at 2 to 8 nM incubated for 48 hrs by Hoechst 33342 staining based analysis. The class given is functional, cell-based. The conditions noted are these: dose 2-8 nM.
The test system of series [4] is K562. In words: Induction of apoptosis in human K562 cells assessed as late apoptotic cells at 4 nM incubated for 48 hrs by Annexin V/PI staining based flow cytometry (reference value: 3.37 +/- 0.21 %). The class given is functional. (In general: In flow cytometry, cells or beads pass a laser one at a time.)
Series [5] concerns K562. As to the kind of experiment: Effect on cell cycle in human K562 cells assessed as decrease in cyclin B1 level incubated for 24 hrs by Western blot analysis. The class given is functional, cell-based. Conditions: dose 2-8 nM.
For series [6], the target named is T2, Histone deacetylase 3 (Homo sapiens, UniProt O15379). As to the kind of experiment: Inhibition of HDAC3 derived from human HeLa cell extract using Ac-Leu-Gly-Lys (Ac)-AMC as substrate by fluorescence based assay. It is filed as cell-free.
T2 sequence (O15379 whole entry): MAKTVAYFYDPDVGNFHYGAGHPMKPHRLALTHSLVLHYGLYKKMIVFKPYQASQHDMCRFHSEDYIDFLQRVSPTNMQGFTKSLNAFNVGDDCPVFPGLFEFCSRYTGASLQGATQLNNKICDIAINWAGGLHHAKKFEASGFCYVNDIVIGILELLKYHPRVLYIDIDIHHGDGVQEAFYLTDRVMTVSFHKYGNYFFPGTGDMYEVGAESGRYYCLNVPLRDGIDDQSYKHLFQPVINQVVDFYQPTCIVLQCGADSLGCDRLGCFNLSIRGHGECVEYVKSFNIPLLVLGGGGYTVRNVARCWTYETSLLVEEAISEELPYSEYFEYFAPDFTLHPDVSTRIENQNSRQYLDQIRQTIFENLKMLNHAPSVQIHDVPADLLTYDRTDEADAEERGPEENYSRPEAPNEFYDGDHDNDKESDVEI
The subject of series [7] is K562. As to the kind of experiment: Induction of cell cycle arrest at S phase in human K562 cells at 2 nM incubated for 48 hrs by PI staining based flow cytometry (reference value: 22.56 +/- 0.47 %). The class given is functional.
The subject of series [8] is K562. In words: Inhibition of mitochondrial membrane potential in human K562 cells assessed as green fluorescence intensity at 4 nM incubated for 48 hrs by JC-1 staining based flow cytometry (reference value: 6.63 +/- 0.27 %). The class given is functional.
Series [9] deals with K562. As to the kind of experiment: Induction of ROS generation in human K562 cells assessed as DCF-positive cells at 2 nM incubated for 48 hrs by DCF-DA probe based flow cytometry (reference value: 3.87 %). The class given is functional.
Series [10] has as its system K562. As to the kind of experiment: Induction of apoptosis in human K562 cells assessed as decrease in Bcl-xL level incubated for 24 hrs by Western blot analysis. It is filed as functional, cell-based. The conditions noted are these: dose 2-8 nM.
Series [11] can be described thus: Toxicity in ICR mouse allografted with mouse H22 cells assessed as toxic sign in spleen at 10 to 20 mg/kg, iv qd for 17 days consecutively by H and E staining based analysis. It is filed as organism-based. Conditions: in vivo, dose 10-20 mg/kg, time 17 day.
For series [12], the system named is K562. As to the kind of experiment: Induction of cell cycle arrest at G2 phase in human K562 cells at 2 nM incubated for 48 hrs by PI staining based flow cytometry (Rvb =15.36 +/- 0.46 %). The class given is functional.
For another series, the system named is B16-F10. As to the kind of experiment: Antiproliferative activity against mouse B16-F10 cells incubated for 72 hrs by MTT assay. The class given is functional, cell-based. Conditions: B16-F10, 72 h. (In general: Tetrazolium dyes change colour on reduction, which living cells bring about.)
The test system of series [13] is K562. In words: Induction of apoptosis in human K562 cells assessed as late apoptotic cells at 8 nM incubated for 48 hrs by Annexin V/PI staining based flow cytometry (reference value: 3.37 +/- 0.21 %). It is filed as functional.
Series [14] concerns K562. As to the kind of experiment: Induction of cell cycle arrest at G1 phase in human K562 cells at 2 nM incubated for 48 hrs by PI staining based flow cytometry (reference value: 62.08 +/- 0.40 %). It is filed as functional.
The subject of series [15] is K562. As to the kind of experiment: Effect on cell cycle in human K562 cells assessed as decrease in Cdc25c level incubated for 24 hrs by Western blot analysis. The class given is functional, cell-based. Conditions: dose 2-8 nM.
The test system of series [16] is K562. In words: Inhibition of mitochondrial membrane potential in human K562 cells assessed as red fluorescence intensity at 8 nM incubated for 48 hrs by JC-1 staining based flow cytometry (reference value: 93.36 +/- 0.21 %). The class given is functional.
A further series deals with MCF7. In words: cells. The conditions noted are these: Homo sapiens, MCF7, 72 h.
Another series relates to HUVEC. As to the kind of experiment: Inhibition of tube formation in HUVEC cells at 8 nM incubated for 6 hrs by inverted microscopy. Conditions: Homo sapiens. The class given is functional, cell-based.
For series [17], the target named is T2, Histone deacetylase 3. As to the kind of experiment: Inhibition of HDAC3 in human K562 cells assessed as increase in Acetyl-histone H3 level at 0.01 to 1 uM incubated for 24 hrs by Western blot analysis. It is filed as cell-based. Conditions: dose 0.01-1 µM.

pIC50: −log10 of the molar value. The source made the active and inactive calls. No cut-off for these calls is given here.

Description for MCF7: Antiproliferative activity against human MCF7 cells incubated for 72 hrs by MTT assay

As to `C=C(c1ccc(OC)c(OC(F)C(=O)NO)c1)c1cc(C)nc2ccccc12` (configuration not stated), in the series with K562 [1], the viability at 0.004 µM was 66.6%. The inhibition result in the series with MDA-MB-231 was “Dose-Dependent Effect”. For the same compound, the result in the series on H22 and in the series on K562 [3] was Active. The inhibition result (in series [2]; in the series with HUVEC; on Histone deacetylase 3 [17]) was “Active” throughout. Besides, the Activity with K562 [4] is 8.7%; in the series on K562 [5], “Dose-Dependent Effect”; with K562 [7], 22.65%; in the series on K562 [9] it was 16.44%; in the series with K562 [10], “Dose-Dependent Effect”; in series [11], “Non-Toxic”. Also, the Activity in the series with K562 [12] was 20.48%; with K562 [13] it was 25.59%; in the series with K562 [14] it was 56.87%; in the series with K562 [15], “Dose-Dependent Effect”. Besides, the pIC50 – broadly, −log10 of the IC50, conventionally taken in molar units – at Histone deacetylase 3 [6] was 5.45; in the series on B16-F10, 8.30; with MCF7 it was 7.44. The Flu intensity with K562 [8] is recorded as 31.75%; in the series on K562 [16] it was 57.69%.
